We go through 9 compounds from US20240059671A1, “TYROSINE KINASE 2 (TYK2) DEGRADATION COMPOUNDS AND METHODS OF USE” (CULLGEN (SHANGHAI), INC., priority 2020, published 2024).

The test concerns the target TYK2 (Homo sapiens, UniProt P29597). Briefly: TYK2 protein degradation in NOMO-1 cells by immunoblotting. Format: cell-based. Details: endogenous in cells. As to conditions: NOMO-1 cells. In outline: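 NOMO-1 cells in RPMI 1640 with 10% FBS were exposed to compound at 0.1–1000 nM for 16 hours. TYK2 levels in RIPA lysates were measured by SDS-PAGE immunoblot with chemiluminescent detection and band densitometry.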
In general terms: A western blot detects proteins with antibodies after separation by electrophoresis.

Structures are written as SMILES.

TYK2, sequence (P29597 whole entry): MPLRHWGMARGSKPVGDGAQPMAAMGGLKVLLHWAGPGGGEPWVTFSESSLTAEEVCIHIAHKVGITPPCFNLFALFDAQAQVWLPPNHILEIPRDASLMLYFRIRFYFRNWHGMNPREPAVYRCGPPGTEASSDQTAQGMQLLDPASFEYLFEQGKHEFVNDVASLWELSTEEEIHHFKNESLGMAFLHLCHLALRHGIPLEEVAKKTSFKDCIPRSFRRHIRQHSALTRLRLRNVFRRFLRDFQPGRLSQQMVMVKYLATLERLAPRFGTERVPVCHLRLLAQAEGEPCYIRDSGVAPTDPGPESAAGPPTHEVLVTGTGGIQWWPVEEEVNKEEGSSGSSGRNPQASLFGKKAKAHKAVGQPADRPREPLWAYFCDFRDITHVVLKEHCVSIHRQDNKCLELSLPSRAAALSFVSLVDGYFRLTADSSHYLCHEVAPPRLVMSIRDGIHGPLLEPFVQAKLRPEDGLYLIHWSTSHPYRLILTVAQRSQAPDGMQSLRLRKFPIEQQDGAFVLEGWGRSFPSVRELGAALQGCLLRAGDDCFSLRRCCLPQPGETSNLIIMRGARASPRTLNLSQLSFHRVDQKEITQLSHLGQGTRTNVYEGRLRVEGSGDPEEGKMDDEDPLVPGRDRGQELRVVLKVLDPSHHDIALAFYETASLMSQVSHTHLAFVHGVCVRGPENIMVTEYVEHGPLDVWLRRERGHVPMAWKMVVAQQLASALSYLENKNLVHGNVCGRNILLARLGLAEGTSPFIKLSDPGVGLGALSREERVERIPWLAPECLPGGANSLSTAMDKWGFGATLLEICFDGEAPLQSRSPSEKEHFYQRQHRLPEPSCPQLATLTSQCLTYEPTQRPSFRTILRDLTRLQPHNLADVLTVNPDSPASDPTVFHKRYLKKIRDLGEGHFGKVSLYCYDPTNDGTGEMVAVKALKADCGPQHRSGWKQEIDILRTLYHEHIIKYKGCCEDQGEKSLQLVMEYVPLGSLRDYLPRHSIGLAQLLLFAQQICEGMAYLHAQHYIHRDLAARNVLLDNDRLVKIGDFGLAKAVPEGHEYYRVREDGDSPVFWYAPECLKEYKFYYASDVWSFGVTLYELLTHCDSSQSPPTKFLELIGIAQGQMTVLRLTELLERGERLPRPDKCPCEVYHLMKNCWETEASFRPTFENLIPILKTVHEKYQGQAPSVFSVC

Turning to `CNC(=O)c1nnc(Nc2ccc(C(=O)NCCNc3cccc4c3C(=O)N(C3CCC(=O)NC3=O)C4=O)cn2)cc1Nc1cccc(-c2ncn(C)n2)c1OC` (stereo not shown) [CPD-152, 6-((5-((2-((2-(2,6-Dioxopiperidin-3-yl)-1,3-dioxoisoindolin-4-yl)amino)ethyl)carbamoyl)pyridin-2-yl)amino)-4-((2-methoxy-3-(1-methyl-1H-1,2,4-triazol-3-yl)phenyl)amino)-N-methylpyridazine-3-carboxamide], the “TYK2 Degradation (NOMO-1, 100 nM)” value is on record as “A (A: ≥60% TYK2 degradation)”.

As for `CNC(=O)c1nnc(Nc2ccc(CNC(=O)CCCCCCCC(=O)N[C@H](C(=O)N3C[C@H](O)C[C@H]3C(=O)N[C@@H](C)c3ccc(-c4scnc4C)cc3)C(C)(C)C)cn2)cc1Nc1cccc(-c2ncn(C)n2)c1OC` [CPD-132, N1-((S)-1-((2S,4R)-4-Hydroxy-2-(((S)-1-(4-(4-methylthiazol-5-yl)phenyl)ethyl)carbamoyl)pyrrolidin-1-yl)-3,3-dimethyl-1-oxobutan-2-yl)-N9-((6-((5-((2-methoxy-3-(1-methyl-1H-1,2,4-triazol-3-yl)phenyl)amino)-6-(methylcarbamoyl)pyridazin-3-yl)amino)pyridin-3-yl)methyl)nonanediamide], the “TYK2 Degradation (NOMO-1, 100 nM)” value is “A (A: ≥60% TYK2 degradation)”.

`CNC(=O)c1nnc(Nc2ccc(N3CCN(C(=O)CCCCCCC(=O)N[C@H](C(=O)N4C[C@H](O)C[C@H]4C(=O)NCc4ccc(C#N)cn4)C(C)(C)C)CC3)cn2)cc1Nc1cccc(-c2ncn(C)n2)c1OC` [CDD-172, 6-((5-(4-(8-(((S)-1-((2S,4R)-2-(((5-cyanopyridin-2-yl)methyl)carbamoyl)-4-hydroxypyrrolidin-1-yl)-3,3-dimethyl-1-oxobutan-2-yl)amino)-8-oxooctanoyl)piperazin-1-yl)pyridin-2-yl)amino)-4-((2-methoxy-3-(1-methyl-1H-1,2,4-triazol-3-yl)phenyl)amino)-N-methylpyridazine-3-carboxamide]: the “TYK2 Degradation (NOMO-1, 10 nM)” value is recorded as “C (C: ≤20% TYK2 degradation)” and the “TYK2 Degradation (NOMO-1, 100 nM)” value was “C (C: ≤20% TYK2 degradation)”. For the compound `CNC(=O)c1nnc(Nc2ccc(N3CCN(C4CCN(C(=O)CCCC(=O)N[C@H](C(=O)N5C[C@H](O)C[C@H]5C(=O)N[C@@H](C)c5ccc(-c6scnc6C)cc5)C(C)(C)C)CC4)CC3)cn2)cc1Nc1cccc(-c2ncn(C)n2)c1OC` [CPD-146, 6-((5-(4-(1-(5-(((S)-1-((2S,4R)-4-Hydroxy-2-(((S)-1-(4-(4-methylthiazol-5-yl)phenyl)ethyl)carbamoyl)pyrrolidin-1-yl)-3,3-dimethyl-1-oxobutan-2-yl)amino)-5-oxopentanoyl)piperidin-4-yl)piperazin-1-yl)pyridin-2-yl)amino)-4-((2-methoxy-3-(1-methyl-1H-1,2,4-triazol-3-yl)phenyl)amino)-N-methylpyridazine-3-carboxamide], the “TYK2 Degradation (NOMO-1, 10 nM)” value was “B (B: <60% TYK2 degradation, and >20% TYK2 degradation)”; the “TYK2 Degradation (NOMO-1, 100 nM)” value was “A (A: ≥60% TYK2 degradation)”. In the case of `CNC(=O)c1nnc(Nc2ccc(C#CC3CN(C(=O)CCCC(=O)N[C@H](C(=O)N4C[C@H](O)C[C@H]4C(=O)N[C@@H](C)c4ccc(-c5scnc5C)cc4)C(C)(C)C)C3)cn2)cc1Nc1cccc(-c2ncn(C)n2)c1OC` [CPD-135, 6-((5-((1-(5-(((S)-1-((2S,4R)-4-Hydroxy-2-(((S)-1-(4-(4-methylthiazol-5-yl)phenyl)ethyl)carbamoyl)pyrrolidin-1-yl)-3,3-dimethyl-1-oxobutan-2-yl)amino)-5-oxopentanoyl)azetidin-3-yl)ethynyl)pyridin-2-yl)amino)-4-((2-methoxy-3-(1-methyl-1H-1,2,4-triazol-3-yl)phenyl)amino)-N-methylpyridazine-3-carboxamide], the “TYK2 Degradation (NOMO-1, 10 nM)” value is “B (B: <60% TYK2 degradation, and >20% TYK2 degradation)”; the “TYK2 Degradation (NOMO-1, 100 nM)” value is “A (A: ≥60% TYK2 degradation)”. Turning to `CNC(=O)c1nnc(Nc2ccc(CNC(=O)CCCCCCCCC(=O)N[C@H](C(=O)N3C[C@H](O)C[C@H]3C(=O)N[C@@H](C)c3ccc(-c4scnc4C)cc3)C(C)(C)C)cn2)cc1Nc1cccc(-c2ncn(C)n2)c1OC` [CPD-133, N1-((S)-1-((2S,4R)-4-hydroxy-2-(((S)-1-(4-(4-methylthiazol-5-yl)phenyl)ethyl)carbamoyl)pyrrolidin-1-yl)-3,3-dimethyl-1-oxobutan-2-yl)-N10-((6-((5-((2-methoxy-3-(1-methyl-1H-1,2,4-triazol-3-yl)phenyl)amino)-6-(methylcarbamoyl)pyridazin-3-yl)amino)pyridin-3-yl)methyl)decanediamide], the “TYK2 Degradation (NOMO-1, 10 nM)” value was “A (A: ≥60% TYK2 degradation)” and the “TYK2 Degradation (NOMO-1, 100 nM)” value was “A (A: ≥60% TYK2 degradation)”. As to `CNC(=O)c1nnc(Nc2ccc(C#CC3CCN(C(=O)CCCC(=O)N[C@H](C(=O)N4C[C@H](O)C[C@H]4C(=O)N[C@@H](C)c4ccc(-c5scnc5C)cc4)C(C)(C)C)CC3)cn2)cc1Nc1cccc(-c2ncn(C)n2)c1OC` [CPD-134, 6-((5-((1-(5-(((S)-1-((2S,4R)-4-hydroxy-2-(((S)-1-(4-(4-methylthiazol-5-yl)phenyl)ethyl)carbamoyl)pyrrolidin-1-yl)-3,3-dimethyl-1-oxobutan-2-yl)amino)-5-oxopentanoyl)piperidin-4-yl)ethynyl)pyridin-2-yl)amino)-4-((2-methoxy-3-(1-methyl-1H-1,2,4-triazol-3-yl)phenyl)amino)-N-methylpyridazine-3-carboxamide], the “TYK2 Degradation (NOMO-1, 10 nM)” value is “A (A: ≥60% TYK2 degradation)” and the “TYK2 Degradation (NOMO-1, 100 nM)” value was “A (A: ≥60% TYK2 degradation)”. Take `CNC(=O)c1nnc(Nc2ccc(C(=O)NCCCCCCCC(=O)N[C@H](C(=O)N3C[C@H](O)C[C@H]3C(=O)N[C@@H](C)c3ccc(-c4scnc4C)cc3)C(C)(C)C)cn2)cc1Nc1cccc(-c2ncn(C)n2)c1OC` [CPD-143, 6-((5-((8-(((S)-1-((2S,4R)-4-hydroxy-2-(((S)-1-(4-(4-methylthiazol-5-yl)phenyl)ethyl)carbamoyl)pyrrolidin-1-yl)-3,3-dimethyl-1-oxobutan-2-yl)amino)-8-oxooctyl)carbamoyl)pyridin-2-yl)amino)-4-((2-methoxy-3-(1-methyl-1H-1,2,4-triazol-3-yl)phenyl)amino)-N-methylpyridazine-3-carboxamide]: the “TYK2 Degradation (NOMO-1, 10 nM)” value is on record as “A (A: ≥60% TYK2 degradation)” and the “TYK2 Degradation (NOMO-1, 100 nM)” value is listed as “A (A: ≥60% TYK2 degradation)”.

As to `CNC(=O)c1nnc(Nc2ccc(C#CC3CCN(C(=O)CCCCC(=O)N[C@H](C(=O)N4C[C@H](O)C[C@H]4C(=O)N[C@@H](C)c4ccc(-c5scnc5C)cc4)C(C)(C)C)CC3)cn2)cc1Nc1cccc(-c2ncn(C)n2)c1OC` [CPD-117, 6-((5-((1-(6-(((S)-1-((2S,4R)-4-Hydroxy-2-(((S)-1-(4-(4-methylthiazol-5-yl)phenyl)ethyl)carbamoyl)pyrrolidin-1-yl)-3,3-dimethyl-1-oxobutan-2-yl)amino)-6-oxohexanoyl)piperidin-4-yl)ethynyl)pyridin-2-yl)amino)-4-((2-methoxy-3-(1-methyl-1H-1,2,4-triazol-3-yl)phenyl)amino)-N-methylpyridazine-3-carboxamide], the “TYK2 Degradation (NOMO-1, 10 nM)” value is “C (C: ≤20% TYK2 degradation)” and the “TYK2 Degradation (NOMO-1, 100 nM)” value is recorded as “A (A: ≥60% TYK2 degradation)”.
